Test results: US20250230138A1, “COMPOUNDS HAVING A T-STRUCTURE FORMED BY AT LEAST FOUR CYCLES FOR USE IN THE TREATMENT OF CANCER AND OTHER INDICATIONS” (TheRas, Inc., priority 2022, published 2025)
Read-outs that look alike come from different tables or passages of the source.

How the values were obtained:
[1] = test system: pAKT in BT474 cells; test: Cell-based pAKT HTRF assay in BT474 cells; conditions: BT474 cells, 4 hr incubation, Compounds 10-999, read-out: pAKT inhibition IC50 in BT474 cells
Method: On Day 1, cells were seeded into 96-well plates at 2.5×10^4 cells/well in complete growth media (DMEM, 10% FBS). On Day 2, cells were treated with compounds at 0.25% DMSO. The source plate was created with compounds diluted in media at 5-fold the final assay concentration. The compounds are run in a 9-point concentration curve starting at 3 μM, with a 3-fold dilution between concentrations. 20 μL was transferred onto the cell plates (final volume in wells was 100 μL). Plates were harvested after 4 hr incubation by aspirating media and adding kit-supplied 1× supplemented lysis buffer to all wells (75 μL per well). Plates were then placed on a plate shaker and incubated at 850 rpm for an additional 30 min. The antibody mixture solution was prepared by diluting aliquoted d2 and Eu Cryptate antibodies 1:20 in kit supplied detection buffer, then mixed the diluted antibodies solutions (1:1 v:v). 4 μL of this solution was then added to a 384-well detection plate (Perkin Elmer; 6008230). Samples were homogenized by pipetting up and down and then transferred (16 μL of cell lysates) from the 96-well cell culture plate to two wells of the HTRF 384-well detection plate containing the antibody solution. Plates were centrifuged (524 g for 1 min) and allowed to incubate between 4 and 24 h at room temperature. The maximum signal is reached after 4 h incubation time and remains stable over a period of 24 hours. Therefore, readings can be made between 4 and 24 h of incubation. Plates were centrifuged again (524 g for 1 m), and analyzed on the EnVision plate reader using the following settings: Excitation 320 nm, Bandwidth […]; Emission 615 nm, Bandwidth […], Gain 10000, Flashes 100, Lag 60 μs.

[2] = target: Cys242 in human PIK3CA (157-299) (Homo sapiens (Human), UniProt P42336); test: Covalent modification assay using MALDI-TOF MS; type: biochemical; conditions: 4 h reaction time point; 3.33 μM protein target, 1:7.5 protein to compound ratio (compounds 1-852)
Method: Matrix-Assisted Laser Desorption Ionization-Time of Flight Mass Spectrometry (MALDI-TOF MS) analysis of covalent modification of Cys242 in human PIK3CA (157-299) was performed.
Reaction: 3.33 μM or 1 μM of PIK3CA (157-299) protein (produced in-house by Protein Expression Laboratory, FNLCR/Leidos Biomed) in 20 mM HEPES buffer containing 150 mM NaCl, 2 mM MgCl2, pH 7.3 was prepared freshly before assay. Twelve-μL aliquots of protein were dispensed onto low volume 384-well plate, then 470 nL DMSO and 30 nL of tested compounds from 10 mM DMSO stocks were added to appropriate wells using ECHO 555 acoustic liquid handler (Labcyte Inc.). For each reaction/assay, three blanks were prepared by mixing 12 μL of protein solution with 500 nL DMSO. The wells content was carefully mixed by aspiration, and then the plate was sealed by an adhesive cover, centrifuged at 931 g for 1 minute, and kept in the dark at room temperature until 15 min, 30 min, 2 h, or 4 h collections.
Targetpretreatment: Before each assay MALDI target (Bruker MPT 384 ground steel BC) was pre-treated by pipetting on each spot 0.75 μL of saturated sinapinic acid in acetonitrile (ACN).
Sample preparation: At collection time point, 2 μL of reaction mixtures were pipetted out into […] MALDI matrix solution (saturated solution of sinapinic acid in 1:1 ACN:water solution containing 0.15% trifluoroacetic acid (TFA)) deposited on 384 well polypropylene plate. The resulting solution was mixed by aspiration, centrifuged at 931 g for 1 minute, then 1.5 μL aliquots were dispensed on pre-treated MALDI target using Beckman Coulter Biomek FX^P 96/384-Span-8 Laboratory Automation Workstation. Finally, the MALDI target was dried under a mild vacuum to produce spots with a fine crystalline structure.
Measurements: MALDI-TOF measurements were performed on Bruker Daltonics rapifleX Tissuetyper TOF-TOF mass spectrometer using linear mode and mass ranging from 16.0 to 19.6 kDa. Detector gain was set to 0.64×(459 V), sample rate to 5 GS/s, real-time smoothing to medium (175 MHz), laser smart beam pattern was set to “Custom” single smartbeam beam scan with a scan range of 40 μm on both X and Y axis, and the laser frequency was 10000 Hz. Spectra were automatically collected using the custom AutoXecute method. Laser power was auto adjusted using fuzzy control. The peak selection range was set to be between 16.0 and 18.5 kDa. Peak evaluation uses a half-width parameter set to be smaller than 40 Da for processed spectrograms (centroid peak detection; smoothed by SavitzkyGolay algorithm using 7 m/z width and 2 cycles; baseline was subtracted using a median algorithm with flatness 1 and median level 0). Fuzzy control used Proteins/Oligonucleotides protocol with minimum half-width 1/10 times above threshold. Up to 40000 satisfactory shots were collected in 10000 short steps. Dynamic termination was implemented to finish data collection when the peak signal/noise ratio was reaching a value of 1000.
Spectra processing: Spectra were smoothed by SavitzkyGolay algorithm using 7 m/z width and three cycles. Centroid peak detection algorithm was used with signal to noise threshold set to 6, relative intensity threshold 3%, peak width 10 m/z, and median baseline subtraction using flatness of 1 and the median level of 0.1. Peak intensity and area under the peak were evaluated and recorded for all peaks between 16.0 and 19.5 kDa.
Calculation of percent modification: Percent modification was calculated as a ratio of peak height for protein modified by compound to the sum of the peak height of remaining protein plus peak height for protein modified by a compound. If multiple modifications were observed each was calculated as a ratio of peak height for given modification versus the sum of peak heights for all observed protein species.

Cys242 in human PIK3CA (157-299), sequence (P42336 157-299): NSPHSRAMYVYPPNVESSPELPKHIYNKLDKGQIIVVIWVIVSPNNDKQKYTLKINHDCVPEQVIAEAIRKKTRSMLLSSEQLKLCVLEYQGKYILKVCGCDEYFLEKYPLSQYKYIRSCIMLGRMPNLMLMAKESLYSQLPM

Row | SMILES | IC50 [1] [nM] | IC50 ([1]; Homo sapiens, BT-474) [nM] | % of modification [2]
1 | C=CC(=O)N1CCC(n2cc(-c3nc(-c4cnn5c4NCCC5)c4ccsc4c3-c3ccc(F)cc3OCCOC)cn2)CC1 [Compound 68] | 100 to 1000 | – | A (percent of modification of PIK3CA protein ≥75%)
2 | C=CC(=O)N1CCC(c2cc(-c3nc(-c4ccc5c(c4)CCNC5)c4ccsc4c3-c3ccc(F)cc3OCCOC)c[nH]c2=O)C1 (stereo not shown) [Compound 70, 5-[7-[4-fluoro-2-(2-methoxyethoxy)phenyl]-4-(1,2,3,4-tetrahydroisoquinolin-6-yl)thieno[3,2-c]pyridin-6-yl]-3-(1-prop-2-enoylpyrrolidin-3-yl)-1H-pyridin-2-one] | – | 100 to 1000 | A (percent of modification of PIK3CA protein ≥75%)
3 | C=CC(=O)N1CCC(n2cc(-c3nc(-c4cnn5c4CNCC5)c4ccsc4c3-c3ccc(F)cc3OCCOC)cn2)CC1 [Compound 71] | 100 to 1000 | – | A (percent of modification of PIK3CA protein ≥75%)
4 | C=CC(=O)N1CCC(n2cc(-c3nc(-c4cn(C)cn4)c4ccsc4c3-c3ccc(F)cc3OCCOC)cn2)CC1 [Compound 73] | 100 to 1000 | – | A (percent of modification of PIK3CA protein ≥75%)
5 | C=CC(=O)NCc1cc(-c2nc(-c3ccc4c(c3)CCNC4)c3ccsc3c2-c2ccc(F)cc2OCCOC)ccc1OC [Compound 74] | 1000 to 3000 | – | D (percent of modification <25%)
6 | C=CC(=O)N1CC(n2cc(-c3nc(-c4cnn(C)c4)c4ccsc4c3-c3ccc(F)cc3OC)cn2)C1 [Compound 76] | < 100 | – | A (percent of modification of PIK3CA protein ≥75%)
7 | C=CC(=O)N1CCn2ncc(-c3nc(-c4ccc5c(c4)CCNC5)c4ccsc4c3-c3ccc(F)cc3OCCOC)c2C1 [Compound 77] | > 3000 | – | D (percent of modification <25%)
8 | C=CC(=O)N1CC(n2cc(-c3nc(-c4ccc5c(c4)CCN(C)C5)c4ccsc4c3-c3ccc(F)cc3OCCOC)cn2)C1 [Compound 78] | < 100 | – | A (percent of modification of PIK3CA protein ≥75%)
9 | C=CC(=O)N1CCc2ccc(-c3nc(-c4ccc5c(c4)CCN(C)C5)c4ccsc4c3-c3ccc(F)cc3OCCOC)cc2C1 [Compound 83] | < 100 | – | A (percent of modification of PIK3CA protein ≥75%)
10 | C=CC(=O)N1CC(n2cc(-c3nc(-c4ncn(C)n4)c4ccsc4c3-c3ccc(F)cc3OCCOC)cn2)C1 [Compound 85] | 100 to 1000 | – | A (percent of modification of PIK3CA protein ≥75%)
11 | C=CC(=O)N1CCc2ncc(-c3nc(-c4ccc5c(c4)CCNC5)c4ccsc4c3-c3ccc(F)cc3OC)cc2C1 [Compound 86] | < 100 | – | A (percent of modification of PIK3CA protein ≥75%)
12 | C=CC(=O)N1CCc2nc(-c3nc(-c4ccc5c(c4)CCNC5)c4ccsc4c3-c3ccc(F)cc3OC)sc2C1 [Compound 87, 1-[2-[7-(4-fluoro-2-methoxy-phenyl)-4-(1,2,3,4-tetrahydroisoquinolin-6-yl)thieno[3,2-c]pyridin-6-yl]-6,7-dihydro-4H-thiazolo[5,4-c]pyridin-5-yl]prop-2-en-1-one] | – | 100 to 1000 | A (percent of modification of PIK3CA protein ≥75%)
13 | C=CC(=O)N1CCc2ncc(-c3nc(-c4ccc5c(c4)CCNC5)c4c(c3-c3ccc(F)cc3OCCOC)CCC4)cc2C1 [Compound 88] | < 100 | – | A (percent of modification of PIK3CA protein ≥75%)
14 | C=CC(=O)N1CCc2ncc(-c3nc(-c4ccc5c(c4)CCNC5)c4c(c3-c3ccc(F)cc3OC)CCC4)cc2C1 [Compound 89, 1-[3-[4-(4-fluoro-2-methoxy-phenyl)-1-(1,2,3,4-tetrahydroisoquinolin-6-yl)-6,7-dihydro-5H-cyclopenta[c]pyridin-3-yl]-7,8-dihydro-5H-1,6-naphthyridin-6-yl]prop-2-en-1-one] | – | 100 to 1000 | A (percent of modification of PIK3CA protein ≥75%)

The next lines start with results.

Row | IC50 [1] [nM] | IC50 ([1]; Homo sapiens, BT-474) [nM] | SMILES | % of modification [2]
15 | < 100 | – | C=CC(=O)N1CC[C@H](n2cc(-c3nc(-c4ccc5c(c4)CCN(C)C5)c4ccsc4c3-c3ccc(F)cc3OCCOC)cn2)C1 [Compound 67] | A (percent of modification of PIK3CA protein ≥75%)
16 | 1000 to 3000 | – | C=CC(=O)N1CCC(n2cc(-c3nc(-c4ccc5c(c4)CNC(=O)C5)c4ccsc4c3-c3ccc(F)cc3)cn2)CC1 [Compound 69] | A (percent of modification of PIK3CA protein ≥75%)
17 | < 100 | – | C=CC(=O)N1CC(n2cc(-c3nc(-c4ccc5c(c4)CNC(=O)C5)c4ccsc4c3-c3ccc(F)cc3OCCOC)cn2)C1 [Compound 72] | A (percent of modification of PIK3CA protein ≥75%)
18 | > 3000 | – | C=CC(=O)N1CCC(n2cc(-c3nc(-c4ccc5c(c4)CNC(=O)C5)c4ccsc4c3-c3ccccc3)cn2)CC1 [Compound 75] | B (50%<percent of modification <75%)
19 | < 100 | – | C=CC(=O)N1CC(n2cc(-c3nc(-c4ccc5c(c4)CNC(=O)C5)c4ccsc4c3-c3ccc(F)cc3OC)cn2)C1 [Compound 79] | A (percent of modification of PIK3CA protein ≥75%)
20 | 100 to 1000 | – | C=CC(=O)N1CCc2ccc(-c3nc(-c4ccc5c(c4)CNC(=O)C5)c4ccsc4c3-c3ccc(F)cc3OC)cc2C1 [Compound 80] | A (percent of modification of PIK3CA protein ≥75%)
21 | – | < 100 | C=CC(=O)N1CC(n2cc(-c3nc(-c4ccc5c(c4)CCNC5)c4ccsc4c3-c3ccc(F)cc3OC)cn2)C1 [Compound 82, 1-[3-[4-[7-(4-fluoro-2-methoxy-phenyl)-4-(1,2,3,4-tetrahydroisoquinolin-6-yl)thieno[3,2-c]pyridin-6-yl]pyrazol-1-yl]azetidin-1-yl]prop-2-en-1-one] | A (percent of modification of PIK3CA protein ≥75%)
22 | – | 1000 to 3000 | C=CC(=O)N1CC(n2cc(-c3nc(-c4ccc5c(c4)CNC(=O)C5)c4ccsc4c3-c3cccnc3OC)cn2)C1 [Compound 84, 7-[7-(2-methoxy-3-pyridyl)-6-[1-(1-prop-2-enoylazetidin-3-yl)pyrazol-4-yl]thieno[3,2-c]pyridin-4-yl]-2,4-dihydro-1H-isoquinolin-3-one] | B (50%<percent of modification <75%)
23 | > 3000 | – | C=CC(=O)N1CC(n2cc(-c3nc(-c4ccc5c(c4)CCNC5)c4ccsc4c3-c3cnn(C)c3)cn2)C1 [Compound 90] | D (percent of modification <25%)
